Measured values taken from US12161741B2, “Skin gel preparation for external use” (Shiseido Company, Ltd., priority 2018, dated 2024).

Assay: Solubility of the di-chain cationic surfactant (distearyldimonium chloride) in oils
Details: for Dissolution of the di-chain cationic surfactant in the oil (text summary of Table 1): 1 g in 100 g oil, 24 hours at ambient temperature; for Evaluation Result (state of the solution of distearyldimonium chloride in the oil): 1 g distearyldimonium chloride mixed and heated to dissolve in 100 g of oil, at rest 24 hours at ambient temperature

Molecule | Dissolution of the di-chain cationic surfactant in the oil (text summary of Table 1) | Evaluation Result (state of the solution of distearyldimonium chloride in the oil)
CC(C)CCCCCCCCCCCCCCCO [Isostearyl alcohol] | homogeneously dissolved | 
CCCCC(CC)COCC(O)CO (centres unmarked) [Ethylhexylglycerin] | homogeneously dissolved | ○
CCCCCCCCCCC(CO)CCCCCCCC (centres unmarked) [Octyldodecanol] | homogeneously dissolved | 
Glyceryl diisostearate | homogeneously dissolved | ○
CC(C)CCCCCCCCCCCCCCCOC(=O)CC(O)C(=O)OCCCCCCCCCCCCCCCC(C)C (centres unmarked) [Diisostearyl malate] | homogeneously dissolved | ○
